Our source for the chromatographic logP and pest or weed control values is patent publication US8791143B2, “Anthranilic diamide derivatives having cyclic side-chains” (priority 2010, dated 2014).

Like-named read-outs stand apart in the source and are kept apart here.

Data set [1] can be described thus: log P by HPLC on reversed-phase columns (EEC Directive 79/831 Annex V.A8). Format: physicochemical.
Data set [2] concerns caterpillars of the armyworm (Spodoptera frugiperda). The experiment in a line: Spodoptera frugiperda test (SPODFR spray treatment). It is filed as in vivo. To be noted: Spodoptera frugiperda, 168 h, read-out: activity in % (caterpillars killed).
Data set [3] has as its system larvae of the mustard beetle (Phaedon cochleariae). Description: Phaedon test (PHAECO spray treatment). As to conditions: Phaedon cochleariae, 168 h, read-out: activity in % (beetle larvae killed).
Setting [4] is: reversed-phase C18 HPLC column, pH 2.7, HPLC reversed-phase C18, acidic range pH 2.7 (HCOOH), only or first value of the cell, read-out: log P.
Where [5] appears, read: application rate 100 g/ha, after 7 days.

In data set [1] (pH 2.7, log P), `Cc1cc(Cl)cc(C(=O)NCc2ccccc2Cl)c1NC(=O)c1cc(Cn2nnc(C(F)(F)F)n2)nn1-c1ncccc1Cl` [Example 82] registered a chromatographic logP of 4.06. Moreover, the pest or weed control at 100 g/ha in data set [2] and in data set [3] was 100% in each case.

In data set [1] (pH 2.7, log P), `Cc1cc(Cl)cc(C(=O)NCc2ccccc2F)c1NC(=O)c1cc(Cn2nnc(C(F)(F)F)n2)nn1-c1ncccc1Cl` [Example 83] came in with a chromatographic logP of 3.77. In addition, the pest or weed control at 100 g/ha in data set [2] and in data set [3] was 100% in each case.

As for `Cc1cc(Cl)cc(C(=O)NC(C)c2ccccc2)c1NC(=O)c1cc(Cn2nnc(C(F)(F)F)n2)nn1-c1ncccc1Cl` (stereo not drawn) [Example 84], in data set [1] (pH 2.7, log P), the chromatographic logP is 3.92. Moreover, the pest or weed control at 100 g/ha in data set [2] and in data set [3] was 100% each time.

In data set [1] (pH 2.7, log P), `Cc1cc(Cl)cc(C(=O)N[C@H](C)c2ccccc2)c1NC(=O)c1cc(Cn2nnc(C(F)(F)F)n2)nn1-c1ncccc1Cl` [Example 85] came in with a chromatographic logP of 3.92. Further, the pest or weed control at 100 g/ha in data set [2] and in data set [3] was 100% in each case.

Compound `Cc1cccc(CNC(=O)c2cc(Cl)cc(C)c2NC(=O)c2cc(Cn3nnc(C(F)(F)F)n3)nn2-c2ncccc2Cl)c1` [Example 89] came in with a chromatographic logP in data set [1] (pH 2.7, log P) of 4.08. For the same compound, the pest or weed control at 100 g/ha in data set [2] and in data set [3] was 100% in each case.

As to `Cc1cc(Cl)cc(C(=O)NCc2ccc(C(C)(C)C)cc2)c1NC(=O)c1cc(Cn2nnc(C(F)(F)F)n2)nn1-c1ncccc1Cl` [Example 91], in data set [1] (setting [4]), the chromatographic logP is 4.85. The pest or weed control at 100 g/ha in data set [2] (setting [5]) and in data set [3] was 100% each time.

With `Cc1cc(Cl)cc(C(=O)NCc2ccc(Cl)cc2Cl)c1NC(=O)c1cc(Cn2nnc(C(F)(F)F)n2)nn1-c1ncccc1Cl` [Example 92], in data set [1] (pH 2.7, log P), the chromatographic logP was 4.41. For the same compound, the pest or weed control at 100 g/ha in data set [2] and in data set [3] was 100% in each case.

As for `Cc1cc(Cl)cc(C(=O)NCc2ccc(Cl)c(Cl)c2)c1NC(=O)c1cc(Cn2nnc(C(F)(F)F)n2)nn1-c1ncccc1Cl` [Example 93], the chromatographic logP in data set [1] (pH 2.7, log P) stood at 4.37. Also, the pest or weed control at 100 g/ha in data set [2] and in data set [3] was 100% in each case.

In the case of `Cc1cc(Cl)cc(C(=O)NCc2cc(Cl)cc(Cl)c2)c1NC(=O)c1cc(Cn2nnc(C(F)(F)F)n2)nn1-c1ncccc1Cl` [Example 94], the chromatographic logP in data set [1] (pH 2.7, log P) is 4.49. The pest or weed control at 100 g/ha in data set [2] and in data set [3] was 100% each time.

Turning to `Cc1cc(Cl)cc(C(=O)NCc2cccc(C(F)(F)F)c2)c1NC(=O)c1cc(Cn2nnc(C(F)(F)F)n2)nn1-c1ncccc1Cl` [Example 95], the chromatographic logP in data set [1] (setting [4]) is 4.23. For the same compound, the pest or weed control at 100 g/ha in data set [2] (setting [5]) and in data set [3] was 100% throughout.

In the case of `Cc1cc(Cl)cc(C(=O)NCc2ccc(C(F)(F)F)cc2)c1NC(=O)c1cc(Cn2nnc(C(F)(F)F)n2)nn1-c1ncccc1Cl` [Example 96], the chromatographic logP in data set [1] (setting [4]) was found to be 4.21. Further, the pest or weed control at 100 g/ha in data set [2] (setting [5]) and in data set [3] was 100% throughout.

Regarding `Cc1cc(Cl)cc(C(=O)NCc2cccc(F)c2)c1NC(=O)c1cc(Cn2nnc(C(F)(F)F)n2)nn1-c1ncccc1Cl` [Example 98], the chromatographic logP in data set [1] (pH 2.7, log P) was 3.79. Also, the pest or weed control at 100 g/ha in data set [2] and in data set [3] was 100% each time.

`Cc1cc(Cl)cc(C(=O)NCc2ccc(F)cc2)c1NC(=O)c1cc(Cn2nnc(C(F)(F)F)n2)nn1-c1ncccc1Cl` [Example 99]: in data set [1] (pH 2.7, log P), the chromatographic logP came to 3.81. The pest or weed control at 100 g/ha in data set [2] and in data set [3] was 100% throughout.

In turn, `COc1ccccc1CNC(=O)c1cc(Cl)cc(C)c1NC(=O)c1cc(Cn2nnc(C(F)(F)F)n2)nn1-c1ncccc1Cl` [Example 100] showed a chromatographic logP in data set [1] (pH 2.7, log P) of 3.94. For the same compound, the pest or weed control at 100 g/ha in data set [2] and in data set [3] was 100% in each case.

Regarding `COc1cccc(CNC(=O)c2cc(Cl)cc(C)c2NC(=O)c2cc(Cn3nnc(C(F)(F)F)n3)nn2-c2ncccc2Cl)c1` [Example 101], the chromatographic logP in data set [1] (pH 2.7, log P) was found to be 3.81. For the same compound, the pest or weed control at 100 g/ha in data set [2] and in data set [3] was 100% in each case.

The compound `COc1ccc(CNC(=O)c2cc(Cl)cc(C)c2NC(=O)c2cc(Cn3nnc(C(F)(F)F)n3)nn2-c2ncccc2Cl)cc1` [Example 102] showed a chromatographic logP in data set [1] (pH 2.7, log P) of 3.76. Further, the pest or weed control at 100 g/ha in data set [2] and in data set [3] was 100% each time.

Consider `Cc1cc(Cl)cc(C(=O)NCc2ccccc2OC(F)(F)F)c1NC(=O)c1cc(Cn2nnc(C(F)(F)F)n2)nn1-c1ncccc1Cl` [Example 103], for which the chromatographic logP in data set [1] (setting [4]) turned out to be 4.34. For the same compound, the pest or weed control at 100 g/ha in data set [2] (setting [5]) and in data set [3] was 100% in each case.

In the case of `Cc1cc(Cl)cc(C(=O)NCc2cccc(OC(F)(F)F)c2)c1NC(=O)c1cc(Cn2nnc(C(F)(F)F)n2)nn1-c1ncccc1Cl` [Example 104], the chromatographic logP in data set [1] (setting [4]) is 4.36. For the same compound, the pest or weed control at 100 g/ha in data set [2] (setting [5]) and in data set [3] was 100% throughout.

In data set [1] (pH 2.7, log P), `Cc1cc(Cl)cc(C(=O)NCc2cccc(Cl)c2Cl)c1NC(=O)c1cc(Cn2nnc(C(F)(F)F)n2)nn1-c1ncccc1Cl` [Example 105] returned a chromatographic logP of 4.37. Further, the pest or weed control at 100 g/ha in data set [2] and in data set [3] was 100% each time.

As to `Cc1cc(Cl)cc(C(=O)NCc2cc(Cl)ccc2Cl)c1NC(=O)c1cc(Cn2nnc(C(F)(F)F)n2)nn1-c1ncccc1Cl` [Example 106], the chromatographic logP in data set [1] (pH 2.7, log P) was 4.39. Further, the pest or weed control at 100 g/ha in data set [2] and in data set [3] was 100% throughout.

In the case of `Cc1cc(Cl)cc(C(=O)NCc2ccc(F)cc2F)c1NC(=O)c1cc(Cn2nnc(C(F)(F)F)n2)nn1-c1ncccc1Cl` [Example 107], the chromatographic logP in data set [1] (pH 2.7, log P) amounted to 3.9. The pest or weed control at 100 g/ha in data set [2] and in data set [3] was 100% in each case.

Turning to `Cc1cc(Cl)cc(C(=O)NCc2ccc(F)c(F)c2F)c1NC(=O)c1cc(Cn2nnc(C(F)(F)F)n2)nn1-c1ncccc1Cl` [Example 108], the chromatographic logP in data set [1] (setting [4]) came out at 4.01. The pest or weed control at 100 g/ha in data set [2] (setting [5]) and in data set [3] was 100% in each case.

With `Cc1cc(Cl)cc(C(=O)NCc2cc(F)cc(F)c2F)c1NC(=O)c1cc(Cn2nnc(C(F)(F)F)n2)nn1-c1ncccc1Cl` [Example 109], the chromatographic logP in data set [1] (setting [4]) stood at 3.98. The pest or weed control at 100 g/ha in data set [2] (setting [5]) and in data set [3] was 100% in each case.

In turn, `Cc1cc(Cl)cc(C(=O)NC(C)c2cccc(Cl)c2)c1NC(=O)c1cc(Cn2nnc(C(F)(F)F)n2)nn1-c1ncccc1Cl` (stereo not drawn) [Example 110] came in with a chromatographic logP in data set [1] (pH 2.7, log P) of 4.31. Moreover, the pest or weed control at 100 g/ha in data set [2] and in data set [3] was 100% in each case.

As for `Cc1cc(Cl)cc(C(=O)NC(C)c2ccc(Cl)cc2)c1NC(=O)c1cc(Cn2nnc(C(F)(F)F)n2)nn1-c1ncccc1Cl` (stereo not drawn) [Example 111], in data set [1] (pH 2.7, log P), the chromatographic logP came out at 4.3. In addition, the pest or weed control at 100 g/ha in data set [2] and in data set [3] was 100% in each case.

`Cc1ccccc1C(C)NC(=O)c1cc(Cl)cc(C)c1NC(=O)c1cc(Cn2nnc(C(F)(F)F)n2)nn1-c1ncccc1Cl` (stereo not drawn) [Example 112] came in with a chromatographic logP in data set [1] (pH 2.7, log P) of 4.2. The pest or weed control at 100 g/ha in data set [2] and in data set [3] was 100% each time.

In data set [1] (pH 2.7, log P), `Cc1cccc(C(C)NC(=O)c2cc(Cl)cc(C)c2NC(=O)c2cc(Cn3nnc(C(F)(F)F)n3)nn2-c2ncccc2Cl)c1` (stereo not drawn) [Example 113] had a chromatographic logP of 4.28. For the same compound, the pest or weed control at 100 g/ha in data set [2] and in data set [3] was 100% in each case.

As to `Cc1ccc(C(C)NC(=O)c2cc(Cl)cc(C)c2NC(=O)c2cc(Cn3nnc(C(F)(F)F)n3)nn2-c2ncccc2Cl)cc1` (stereo not drawn) [Example 114], in data set [1] (pH 2.7, log P), the chromatographic logP turned out to be 4.24. In addition, the pest or weed control at 100 g/ha in data set [2] and in data set [3] was 100% throughout.

`Cc1cc(Cl)cc(C(=O)NC(C)c2ccc(C(C)(C)C)cc2)c1NC(=O)c1cc(Cn2nnc(C(F)(F)F)n2)nn1-c1ncccc1Cl` (stereo not drawn) [Example 115]: the chromatographic logP in data set [1] (setting [4]) was 5.06. Further, the pest or weed control at 100 g/ha in data set [2] (setting [5]) and in data set [3] was 100% throughout.

In data set [1] (pH 2.7, log P), `Cc1cc(Cl)cc(C(=O)NCc2cccc(Cl)c2)c1NC(=O)c1cc(Cn2nnc(C(F)(F)F)n2)nn1-c1ncccc1Cl` [Example 116] gave a chromatographic logP of 4.1. In addition, the pest or weed control at 100 g/ha in data set [2] and in data set [3] was 100% throughout.

For the compound `Cc1cc(Cl)cc(C(=O)NC(C)c2ccc(OC(F)(F)F)cc2)c1NC(=O)c1cc(Cn2nnc(C(F)(F)F)n2)nn1-c1ncccc1Cl` (stereo not drawn) [Example 117], the chromatographic logP in data set [1] (setting [4]) is 4.52. For the same compound, the pest or weed control at 100 g/ha in data set [2] (setting [5]) and in data set [3] was 100% throughout.

On to `Cc1cc(Cl)cc(C(=O)NCc2ccccc2C(F)(F)F)c1NC(=O)c1cc(Cn2nnc(C(F)(F)F)n2)nn1-c1ncccc1Cl` [Example 118], for which, in data set [1] (setting [4]), the chromatographic logP is 4.21. Moreover, the pest or weed control at 100 g/ha in data set [2] (setting [5]) and in data set [3] was 100% throughout.

In the case of `Cc1ccccc1CNC(=O)c1cc(Cl)cc(C)c1NC(=O)c1cc(Cn2nnc(C(F)(F)F)n2)nn1-c1ncccc1Cl` [Example 119], in data set [1] (pH 2.7, log P), the chromatographic logP was determined as 4.03. Further, the pest or weed control at 100 g/ha in data set [2] and in data set [3] was 100% each time.

On to `Cc1cc(Cl)cc(C(=O)NC(C)c2cccc(C(F)(F)F)c2)c1NC(=O)c1cc(Cn2nnc(C(F)(F)F)n2)nn1-c1ncccc1Cl` (stereo not drawn) [Example 120], for which the chromatographic logP in data set [1] (setting [4]) was found to be 4.42. The pest or weed control at 100 g/ha in data set [2] (setting [5]) and in data set [3] was 100% throughout.
